# Assay results reported in article PMC10706475 (International Journal of Molecular Sciences, 2023).
# “And” between values parts separate entries of the source, which are not always exact repeats. Equal values may be shown once. Read-outs that look alike come from different tables or passages of the source.
# Tests used:
# Non-protein thiol (NPT) = assay type: in vivo, mice
# 5-HT2A = target: T1, 5-HT2A (Homo sapiens, UniProt P28223); assay: radioligand binding, 5-HT2A; details: [3H] Ketanserin, cloned human receptor; read-out: 5HT2A binding affinity (Ki)
# T1 construct: expressed in transfected cells
# Vitamin C = assay type: in vivo, mice
# GluN1/GluN2A = GluN1/GluN2A (Rattus norvegicus, UniProt P35439+Q00959); assay: [3H] MK801 binding assay, transfected HEK293 cells, GluN1/GluN2A
# [1] = test system: organotypic rat hippocampal slices; assay type: cell-based
# κ-opioid receptors (KOR) = target: T2, κ-opioid receptors (KOR) (Rattus norvegicus, UniProt P34975); assay: biochemical; assay type: binding; details: read-out: κ-Opiod Receptor Ki
# T2 construct: expressed in transfected cells
# [2] = in vivo activity (i.p.), test not specified; details: 100 and 300 mg/kg (i.p.); test not named
# Procedure: Sodium metavanadate (NaO3V) (Sigma, St. Louis, MO, USA) was utilized in this study. Novel NMDA-Receptor antagonist, ZA-II-05, is a bicyclic aryl cyclohexylamine, designed and synthesized in our lab, fully active at 100 and 300 mg/kg (i.p.). Several tests established the safety of the compound at dosages envisioned in this study.
# [3] = target: T3, Serotonin Transporter (SERT) (Homo sapiens, UniProt P31645); assay: radioligand binding, Serotonin Transporter; details: [3H] Citalopram, cloned human transporter; read-out: SERT binding affinity (Ki)
# T3 construct: expressed in transfected cells
# nitric oxide (NO) = assay type: in vivo, mice
# [4] = test system: dendritic density and arborizations; assay type: in vivo, mice; details: coadministration of ZA-II-05 with […], vs […]-treated group
# [5] = target: T4, Dopamine Transporter (DAT) (Homo sapiens, UniProt Q01959); assay: radioligand binding, Dopamine Transporter; details: [3H] WIN35428, cloned human transporter
# T4 construct: expressed in transfected cells
# [6] = locomotion and motor coordination; assay type: in vivo, mice; details: treatment with ZA-II-05 in vanadium-induced neurotoxicity
# IBA1 = assay type: in vivo, mice; details: ZA-II-05 treated groups vs […] group
# [7] = test system: Myelin Basic Protein (MBP); parameters: species or system mice; details: mouse, in vivo
# Dopamine 1 (D1) = target: T5, Dopamine 1 (D1) (Homo sapiens, UniProt P21728); assay: radioligand binding, Dopamine 1 (D1); details: [3H] SCH23390, cloned human receptor; read-out: D1 binding affinity (Ki)
# T5 construct: expressed in transfected cells
# H2O2 = test system: H2O2; parameters: species or system mice; details: mouse, in vivo
# total thiol (PT) = assay type: in vivo, mice
# Sigma2 = target: T6, Sigma2 (Rattus norvegicus, UniProt Q5U3Y7); assay: radioligand binding, Sigma2
# T6 construct: Sigma2; DTG; Rat; PC12; endogenous in cells; host or cells: PC12
# Sigma1 = target: T7, Sigma1 (Rattus norvegicus, UniProt Q9R0C9); assay: radioligand binding, Sigma1; details: [3H] Pentazocine (+), rat brain; read-out: Sigma 1 binding affinity (Ki)
# T7 construct: Sigma1; Pentazocine (+); Rat; Brain; from tissue; host or cells: rat brain
# GFAP = test system: GFAP; parameters: species or system mice; details: mouse, in vivo
# NeuN = assay type: in vivo, mice
# [8] = target: T8, Norepinephrine Transporter (NET) (Homo sapiens, UniProt P23975); assay: radioligand binding, Norepinephrine Transporter; details: [3H] Nisoxetine, cloned human transporter; read-out: NET binding affinity (Ki)
# T8 construct: expressed in transfected cells
# [9] = test system: tumor necrosis factor-alpha (TNF-α)
# µ-opioid receptors (MOR) = target: T9, µ-opioid receptors (MOR) (Homo sapiens, UniProt P35372); assay: radioligand binding, µ-opioid receptor; details: read-out: μ-Opiod Receptor Ki
# T9 construct: expressed in transfected cells
# D2 = target: T10, D2 (Homo sapiens, UniProt P14416); assay: radioligand binding, D2; details: [3H] N-Methylspiperone, cloned human receptor; read-out: D2 binding affinity (Ki)
# T10 construct: expressed in transfected cells
# [10] = ZA-II-05 only 100 mg/kg i.p. every 72 h, one month, mouse brain
# T8 sequence (P23975 whole entry): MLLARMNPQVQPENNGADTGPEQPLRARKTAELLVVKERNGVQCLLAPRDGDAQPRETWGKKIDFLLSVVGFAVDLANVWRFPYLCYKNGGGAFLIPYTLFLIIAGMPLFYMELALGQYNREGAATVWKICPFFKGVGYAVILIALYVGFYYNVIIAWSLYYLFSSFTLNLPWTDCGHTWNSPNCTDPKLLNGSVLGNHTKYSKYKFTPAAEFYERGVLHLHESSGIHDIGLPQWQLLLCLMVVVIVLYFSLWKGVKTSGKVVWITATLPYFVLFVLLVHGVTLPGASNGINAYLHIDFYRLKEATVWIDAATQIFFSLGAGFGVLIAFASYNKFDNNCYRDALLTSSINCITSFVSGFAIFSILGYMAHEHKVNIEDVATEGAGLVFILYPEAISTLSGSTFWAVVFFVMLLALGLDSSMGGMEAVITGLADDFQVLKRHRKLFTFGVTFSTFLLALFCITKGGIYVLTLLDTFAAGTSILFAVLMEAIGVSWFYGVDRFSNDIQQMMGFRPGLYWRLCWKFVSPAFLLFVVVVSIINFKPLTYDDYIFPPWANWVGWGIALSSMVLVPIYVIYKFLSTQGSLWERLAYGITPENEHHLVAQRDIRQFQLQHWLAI
# T1 sequence (P28223 whole entry): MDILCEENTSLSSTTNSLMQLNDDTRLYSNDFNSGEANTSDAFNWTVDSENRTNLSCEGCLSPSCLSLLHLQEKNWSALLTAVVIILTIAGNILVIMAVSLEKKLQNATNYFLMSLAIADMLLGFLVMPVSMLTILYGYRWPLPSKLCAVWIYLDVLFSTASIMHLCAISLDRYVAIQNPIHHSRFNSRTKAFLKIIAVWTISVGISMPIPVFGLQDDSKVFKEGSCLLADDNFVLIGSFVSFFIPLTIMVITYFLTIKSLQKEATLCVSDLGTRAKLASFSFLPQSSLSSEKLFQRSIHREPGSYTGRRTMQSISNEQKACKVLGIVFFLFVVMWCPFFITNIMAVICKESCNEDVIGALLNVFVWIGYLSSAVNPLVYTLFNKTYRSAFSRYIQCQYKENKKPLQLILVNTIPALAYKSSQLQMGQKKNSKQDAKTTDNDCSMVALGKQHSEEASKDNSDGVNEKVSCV
# T4 sequence (Q01959 whole entry): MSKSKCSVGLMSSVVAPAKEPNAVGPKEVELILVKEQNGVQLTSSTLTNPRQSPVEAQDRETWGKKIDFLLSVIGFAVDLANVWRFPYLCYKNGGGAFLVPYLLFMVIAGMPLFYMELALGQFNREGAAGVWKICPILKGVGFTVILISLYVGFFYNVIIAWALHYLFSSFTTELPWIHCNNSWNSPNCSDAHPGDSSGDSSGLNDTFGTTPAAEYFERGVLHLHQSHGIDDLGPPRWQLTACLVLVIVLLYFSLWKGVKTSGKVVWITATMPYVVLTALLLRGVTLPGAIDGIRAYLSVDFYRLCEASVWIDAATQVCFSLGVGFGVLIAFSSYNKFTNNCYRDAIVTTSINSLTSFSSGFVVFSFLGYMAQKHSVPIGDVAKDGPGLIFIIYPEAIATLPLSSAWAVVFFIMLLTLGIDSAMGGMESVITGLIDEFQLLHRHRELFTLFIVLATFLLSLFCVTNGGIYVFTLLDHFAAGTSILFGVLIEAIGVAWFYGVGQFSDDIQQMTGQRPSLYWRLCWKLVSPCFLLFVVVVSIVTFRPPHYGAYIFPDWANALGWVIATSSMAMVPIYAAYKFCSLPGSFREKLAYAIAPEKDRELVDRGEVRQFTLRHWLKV
# T10 sequence (P14416 whole entry): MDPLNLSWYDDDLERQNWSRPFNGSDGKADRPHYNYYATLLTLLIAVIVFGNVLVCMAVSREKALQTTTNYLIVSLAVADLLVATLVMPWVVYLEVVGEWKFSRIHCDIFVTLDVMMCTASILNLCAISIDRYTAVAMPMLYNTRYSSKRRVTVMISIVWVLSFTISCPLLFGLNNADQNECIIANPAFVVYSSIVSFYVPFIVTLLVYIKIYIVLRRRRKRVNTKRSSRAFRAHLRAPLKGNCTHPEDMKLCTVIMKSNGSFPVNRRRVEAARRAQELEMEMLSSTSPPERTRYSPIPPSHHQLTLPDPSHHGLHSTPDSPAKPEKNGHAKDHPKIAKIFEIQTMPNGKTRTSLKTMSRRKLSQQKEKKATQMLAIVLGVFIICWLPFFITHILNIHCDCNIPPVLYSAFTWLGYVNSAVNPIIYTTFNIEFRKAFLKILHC
# T7 sequence (Q9R0C9 whole entry): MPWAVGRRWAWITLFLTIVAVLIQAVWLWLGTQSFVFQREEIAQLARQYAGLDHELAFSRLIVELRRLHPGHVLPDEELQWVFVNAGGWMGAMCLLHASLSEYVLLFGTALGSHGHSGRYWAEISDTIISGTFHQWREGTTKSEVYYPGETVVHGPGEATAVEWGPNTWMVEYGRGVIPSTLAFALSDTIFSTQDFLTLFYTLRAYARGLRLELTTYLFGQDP
# T6 sequence (Q5U3Y7 whole entry): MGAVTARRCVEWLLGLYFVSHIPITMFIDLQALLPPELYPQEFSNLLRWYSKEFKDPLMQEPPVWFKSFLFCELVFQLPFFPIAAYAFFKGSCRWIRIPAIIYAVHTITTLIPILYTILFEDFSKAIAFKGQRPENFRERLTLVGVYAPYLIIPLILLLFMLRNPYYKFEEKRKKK
# T5 sequence (P21728 whole entry): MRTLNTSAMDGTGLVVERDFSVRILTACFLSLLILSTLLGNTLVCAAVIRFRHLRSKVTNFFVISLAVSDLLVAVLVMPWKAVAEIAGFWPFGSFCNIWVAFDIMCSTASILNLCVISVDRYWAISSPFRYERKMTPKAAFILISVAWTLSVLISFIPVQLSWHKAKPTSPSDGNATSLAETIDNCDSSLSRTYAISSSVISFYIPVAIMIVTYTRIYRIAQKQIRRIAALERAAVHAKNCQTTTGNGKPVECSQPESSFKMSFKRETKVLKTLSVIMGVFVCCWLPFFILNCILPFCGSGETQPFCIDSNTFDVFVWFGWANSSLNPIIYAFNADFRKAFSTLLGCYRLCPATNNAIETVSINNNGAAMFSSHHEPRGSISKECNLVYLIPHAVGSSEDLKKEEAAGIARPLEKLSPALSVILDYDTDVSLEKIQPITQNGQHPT
# GluN1/GluN2A, sequence (Q00959 23-1464, other chains not shown): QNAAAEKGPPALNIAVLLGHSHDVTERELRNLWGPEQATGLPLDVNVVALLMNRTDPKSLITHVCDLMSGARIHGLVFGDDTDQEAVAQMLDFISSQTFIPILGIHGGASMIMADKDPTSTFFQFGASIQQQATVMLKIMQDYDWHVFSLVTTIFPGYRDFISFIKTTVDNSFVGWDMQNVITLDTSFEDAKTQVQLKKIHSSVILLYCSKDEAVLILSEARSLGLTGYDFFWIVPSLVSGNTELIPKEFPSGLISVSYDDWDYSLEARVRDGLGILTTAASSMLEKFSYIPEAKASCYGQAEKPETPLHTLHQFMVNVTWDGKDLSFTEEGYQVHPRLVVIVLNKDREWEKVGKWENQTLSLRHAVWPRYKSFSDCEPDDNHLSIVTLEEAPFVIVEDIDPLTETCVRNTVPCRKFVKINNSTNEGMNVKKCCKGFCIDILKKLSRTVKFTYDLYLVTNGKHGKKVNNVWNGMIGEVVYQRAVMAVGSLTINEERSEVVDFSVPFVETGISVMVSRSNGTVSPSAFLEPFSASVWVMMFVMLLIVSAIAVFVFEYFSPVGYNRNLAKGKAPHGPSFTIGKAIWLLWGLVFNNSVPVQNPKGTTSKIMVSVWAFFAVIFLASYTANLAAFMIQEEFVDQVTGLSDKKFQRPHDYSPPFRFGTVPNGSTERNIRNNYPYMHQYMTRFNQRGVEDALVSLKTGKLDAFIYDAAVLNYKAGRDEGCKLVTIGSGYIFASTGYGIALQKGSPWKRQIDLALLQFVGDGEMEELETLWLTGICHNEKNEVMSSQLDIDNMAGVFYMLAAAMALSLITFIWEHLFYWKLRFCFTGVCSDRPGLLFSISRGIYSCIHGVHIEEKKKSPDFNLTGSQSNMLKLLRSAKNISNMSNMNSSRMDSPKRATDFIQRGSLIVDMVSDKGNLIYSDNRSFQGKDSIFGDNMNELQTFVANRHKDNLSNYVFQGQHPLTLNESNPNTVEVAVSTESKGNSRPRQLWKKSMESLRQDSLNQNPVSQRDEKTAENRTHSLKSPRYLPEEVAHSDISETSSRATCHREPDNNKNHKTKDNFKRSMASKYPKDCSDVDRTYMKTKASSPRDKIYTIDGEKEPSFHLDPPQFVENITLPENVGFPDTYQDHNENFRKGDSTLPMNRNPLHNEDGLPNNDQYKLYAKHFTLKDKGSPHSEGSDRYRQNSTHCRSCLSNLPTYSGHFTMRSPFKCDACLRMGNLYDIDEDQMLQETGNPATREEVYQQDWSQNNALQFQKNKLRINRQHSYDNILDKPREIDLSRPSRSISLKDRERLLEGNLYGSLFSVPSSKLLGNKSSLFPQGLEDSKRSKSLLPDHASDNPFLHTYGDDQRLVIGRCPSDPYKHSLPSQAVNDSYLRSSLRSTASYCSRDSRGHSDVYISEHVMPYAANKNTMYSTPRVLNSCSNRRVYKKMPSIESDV
# T9 sequence (P35372 whole entry): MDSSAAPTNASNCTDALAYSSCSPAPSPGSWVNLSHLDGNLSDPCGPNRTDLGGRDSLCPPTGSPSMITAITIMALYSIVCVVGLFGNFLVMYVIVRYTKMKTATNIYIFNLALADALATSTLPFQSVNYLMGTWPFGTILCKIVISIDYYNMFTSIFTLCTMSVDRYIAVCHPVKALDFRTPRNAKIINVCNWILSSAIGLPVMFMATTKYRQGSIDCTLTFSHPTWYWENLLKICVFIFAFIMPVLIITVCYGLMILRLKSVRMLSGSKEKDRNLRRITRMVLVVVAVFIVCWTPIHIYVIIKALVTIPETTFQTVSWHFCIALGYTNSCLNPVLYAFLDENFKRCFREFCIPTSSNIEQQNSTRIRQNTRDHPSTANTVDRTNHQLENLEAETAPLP
compound,measurement,setting,value
Fc1ccc(C2(NCCCOC3CCCCO3)CC3CCC2C3)cc1 (stereo not shown) [ZA-II-05],NPT,Non-protein thiol (NPT); [10],26.98±5.89 nmoles/mg protein
same,NPT,"Non-protein thiol (NPT); mouse, in vivo",29.06±3.80 nmoles/mg protein
same,Ki,5-HT2A,> 10 µM
same,VIT. C,Vitamin C; [10],0.17±0.02 nmoles/mg protein
same,VIT. C,"Vitamin C; mouse, in vivo",0.20±0.04 nmoles/mg protein
same,difference in affinity GluN1/GluN2A vs GluN1/GluN2B,GluN1/GluN2A,No significant difference in affinity
same,cell death in vanadium-treated hippocampal slices (propidium iodide uptake),[1],gradual reduction in cell death with increasing concentrations
same,concentration of peak protection against vanadium-induced cell death,[1],100 µM
same,Ki,κ-opioid receptors (KOR),1240 nM
same,activity in vivo,[2],fully active
same,Ki,[3],> 10 µM
same,NO,nitric oxide (NO); [10],0.34±0.03 μmole/mg protein
same,NO,"nitric oxide (NO); mouse, in vivo",0.32±0.03 μmole/mg protein
same,dendritic length and arborization (Golgi stain),[4],successfully reversed these dendritic changes induced by vanadium neurotoxicity
same,Ki,[5],3.16 µM
same,locomotion and motor coordination,[6],enhanced locomotion and improved motor coordination
same,microglial activation (IBA1),IBA1,quiescence and recovery from activation
same,expression of myelin content (MBP),[7],significantly higher expression of myelin content and preservation of axonal dendritic integrity in the deep cortical layers
same,Ki,Dopamine 1 (D1),> 10 µM
same,H2O2,H2O2,38.89±2.67 and 46.02±0.29
same,THIOL,total thiol (PT); [10],28.62±6.72 nmoles/mg/protein
same,THIOL,"total thiol (PT); mouse, in vivo",25.06±4.68 nmoles/mg/protein
same,Ki,Sigma2,5.5 nM
same,Ki,Sigma1,> 10 µM
same,astrocyte reactivity (GFAP),GFAP,attenuation of astrocyte reactivity
same,NeuN viable cells / neuronal number,"NeuN; ZA-II-05 only 100 mg/kg (ZA treatment only), CA1 and PFC",decreased viable cells in CA1 but increased neuronal number and vitality in the prefrontal cortex
same,"NeuN cellular pathology, prefrontal cortex","NeuN; mouse, in vivo, 100 mg/kg",significantly less cellular pathology in the prefrontal cortex compared to the vanadium-exposed groups
same,"NeuN, loss of apical dendrites of pyramidal cells, CA1","NeuN; mouse, in vivo, 100 mg/kg",reversal effect relative to the vanadium-exposed group
same,"NeuN, neuronal degeneration of pyramidal cells, CA3","NeuN; mouse, in vivo, 100 mg/kg",reversal effect with reduced cellular toxicity
same,Ki,[8],> 10 µM
same,TNF-α expression,"[9]; ZA-II-05 only 100 mg/kg, all brain regions vs other groups",upregulated the expression of TNF-α significantly (p < 0.05) in all the brain regions
same,cytoplasmic TNF-α expression,[9]; […] + ZA-II-05-treated groups vs […] group,reduced cytoplasmic TNF-α expression compared to vanadium group
same,Ki,µ-opioid receptors (MOR),3.04 µM
same,Ki,D2,> 10 µM
